Data as given in ChEMBL document CHEMBL3885861, “Open TG-GATES”.

Species: Rattus norvegicus
Assay: Open TG-GATES - Regimen: Single
Type: toxicity, organism-based, Sprague-Dawley
Design: regimen Single, gender Male, age 6 weeks
Details: in vivo, po, route gavage; for APTT / Bas / Eos / Fbg / Hb / Ht / Lym / MCH / MCHC / MCV / Mono / Neu / PT / Plat / RBC / Ret / WBC: tissue Blood; for KIDNEY_L / KIDNEY_R / KIDNEY_TOTAL: tissue Kidney; for ALP / ALT / AST / CRE / Cl / DBIL / GLC / IP / K / LDH / Na / PL / RALB / TBIL / TC / TG / TP / gamma-GTP: tissue Plasma

Compound: COc1cc2c(c(OC)c1OC)-c1ccc(OC)c(=O)cc1[C@@H](NC(C)=O)CC2 [COLCHICINE]
- APTT (2 mg/kg, 3 h, dose level Low): 16.6 s
- Bas (2 mg/kg, 3 h, dose level Low): 0%
- Eos (2 mg/kg, 3 h, dose level Low): 1%
- Fbg (2 mg/kg, 3 h, dose level Low): 218.6 mg/dL
- Hb (2 mg/kg, 3 h, dose level Low): 13.5 g/dL
- Ht (2 mg/kg, 3 h, dose level Low): 40.7%
- Lym (2 mg/kg, 3 h, dose level Low): 84.4%
- MCH (2 mg/kg, 3 h, dose level Low): 21.9 pg
- MCHC (2 mg/kg, 3 h, dose level Low): 33.2%
- MCV (2 mg/kg, 3 h, dose level Low): 66.1 fL
- Mono (2 mg/kg, 3 h, dose level Low): 6.2%
- Neu (2 mg/kg, 3 h, dose level Low): 8.8%
- PT (2 mg/kg, 3 h, dose level Low): 11.8 s
- Plat (2 mg/kg, 3 h, dose level Low): 109.4 x10_4/uL
- RBC (2 mg/kg, 3 h, dose level Low): 616.8 x10_4/ul
- Ret (2 mg/kg, 3 h, dose level Low): 10.2%
- WBC (2 mg/kg, 3 h, dose level Low): 106.7 x10_2/uL
- KIDNEY_L (2 mg/kg, 3 h, dose level Low): 1 g
- KIDNEY_R (2 mg/kg, 3 h, dose level Low): 1 g
- KIDNEY_TOTAL (2 mg/kg, 3 h, dose level Low): 2 g
- ALP (2 mg/kg, 3 h, dose level Low): 946.8 IU/L
- ALT (2 mg/kg, 3 h, dose level Low): 41.6 IU/L
- AST (2 mg/kg, 3 h, dose level Low): 84.4 IU/L
- CRE (2 mg/kg, 3 h, dose level Low): 0.5 mg/dL
- Cl (2 mg/kg, 3 h, dose level Low): 104 meq/L
- DBIL (2 mg/kg, 3 h, dose level Low): 0.01 mg/dL
- GLC (2 mg/kg, 3 h, dose level Low): 199.8 mg/dL
- IP (2 mg/kg, 3 h, dose level Low): 9.3 mg/dL
- K (2 mg/kg, 3 h, dose level Low): 4.7 meq/L
- LDH (2 mg/kg, 3 h, dose level Low): 137.8 IU/L
- Na (2 mg/kg, 3 h, dose level Low): 140.2 meq/L
- PL (2 mg/kg, 3 h, dose level Low): 143.6 mg/dL
- RALB (2 mg/kg, 3 h, dose level Low): 3.7 g/dL
- TBIL (2 mg/kg, 3 h, dose level Low): 0.4 mg/dL
- TC (2 mg/kg, 3 h, dose level Low): 80.6 mg/dL
- TG (2 mg/kg, 3 h, dose level Low): 57.6 mg/dL
- TP (2 mg/kg, 3 h, dose level Low): 5.5 g/dL
- gamma-GTP (2 mg/kg, 3 h, dose level Low): 1.8 IU/L
- TERMINAL_BW (2 mg/kg, 6 h, dose level Low): 217.7 g
- APTT (2 mg/kg, 6 h, dose level Low): 16.3 s
- Bas (2 mg/kg, 6 h, dose level Low): 0%
- Eos (2 mg/kg, 6 h, dose level Low): 1%
- Fbg (2 mg/kg, 6 h, dose level Low): 218.8 mg/dL
- Hb (2 mg/kg, 6 h, dose level Low): 13.4 g/dL
- Ht (2 mg/kg, 6 h, dose level Low): 40.8%
- Lym (2 mg/kg, 6 h, dose level Low): 81%
- MCH (2 mg/kg, 6 h, dose level Low): 21.6 pg
- MCHC (2 mg/kg, 6 h, dose level Low): 32.7%
- MCV (2 mg/kg, 6 h, dose level Low): 65.9 fL
- Mono (2 mg/kg, 6 h, dose level Low): 6.8%
- Neu (2 mg/kg, 6 h, dose level Low): 11.2%
- PT (2 mg/kg, 6 h, dose level Low): 11.9 s
- Plat (2 mg/kg, 6 h, dose level Low): 109.8 x10_4/uL
- RBC (2 mg/kg, 6 h, dose level Low): 620 x10_4/ul
- Ret (2 mg/kg, 6 h, dose level Low): 9.8%
- WBC (2 mg/kg, 6 h, dose level Low): 115.2 x10_2/uL
- KIDNEY_L (2 mg/kg, 6 h, dose level Low): 0.9 g
- KIDNEY_R (2 mg/kg, 6 h, dose level Low): 0.9 g
- KIDNEY_TOTAL (2 mg/kg, 6 h, dose level Low): 1.9 g
- ALT (2 mg/kg, 6 h, dose level Low): 40.8 IU/L
- AST (2 mg/kg, 6 h, dose level Low): 81.8 IU/L
- CRE (2 mg/kg, 6 h, dose level Low): 0.5 mg/dL
- Cl (2 mg/kg, 6 h, dose level Low): 104.4 meq/L
- DBIL (2 mg/kg, 6 h, dose level Low): 0.03 mg/dL
- GLC (2 mg/kg, 6 h, dose level Low): 188.6 mg/dL
- IP (2 mg/kg, 6 h, dose level Low): 9.8 mg/dL
- K (2 mg/kg, 6 h, dose level Low): 4.7 meq/L
- LDH (2 mg/kg, 6 h, dose level Low): 113.6 IU/L
- Na (2 mg/kg, 6 h, dose level Low): 140.2 meq/L
- PL (2 mg/kg, 6 h, dose level Low): 131.6 mg/dL
- RALB (2 mg/kg, 6 h, dose level Low): 3.7 g/dL
- TBIL (2 mg/kg, 6 h, dose level Low): 0.4 mg/dL
- TC (2 mg/kg, 6 h, dose level Low): 73 mg/dL
- TG (2 mg/kg, 6 h, dose level Low): 49.6 mg/dL
- TP (2 mg/kg, 6 h, dose level Low): 5.5 g/dL
- gamma-GTP (2 mg/kg, 6 h, dose level Low): 1.2 IU/L
- TERMINAL_BW (2 mg/kg, 9 h, dose level Low): 215.3 g
- APTT (2 mg/kg, 9 h, dose level Low): 16.2 s
- Bas (2 mg/kg, 9 h, dose level Low): 0%
- Eos (2 mg/kg, 9 h, dose level Low): 0.8%
- Fbg (2 mg/kg, 9 h, dose level Low): 212.4 mg/dL
- Hb (2 mg/kg, 9 h, dose level Low): 12.9 g/dL
- Ht (2 mg/kg, 9 h, dose level Low): 39%
- Lym (2 mg/kg, 9 h, dose level Low): 72.2%
- MCH (2 mg/kg, 9 h, dose level Low): 21.2 pg
- MCHC (2 mg/kg, 9 h, dose level Low): 33.1%
- MCV (2 mg/kg, 9 h, dose level Low): 64.1 fL
- Mono (2 mg/kg, 9 h, dose level Low): 11.8%
- Neu (2 mg/kg, 9 h, dose level Low): 15.6%
- PT (2 mg/kg, 9 h, dose level Low): 11.7 s
- Plat (2 mg/kg, 9 h, dose level Low): 114.1 x10_4/uL
- RBC (2 mg/kg, 9 h, dose level Low): 609.6 x10_4/ul
- Ret (2 mg/kg, 9 h, dose level Low): 9.8%
- WBC (2 mg/kg, 9 h, dose level Low): 101.3 x10_2/uL
- KIDNEY_L (2 mg/kg, 9 h, dose level Low): 1 g
- KIDNEY_R (2 mg/kg, 9 h, dose level Low): 1 g
- KIDNEY_TOTAL (2 mg/kg, 9 h, dose level Low): 2 g
- ALP (2 mg/kg, 9 h, dose level Low): 888 IU/L
- ALT (2 mg/kg, 9 h, dose level Low): 47.6 IU/L
- AST (2 mg/kg, 9 h, dose level Low): 93.4 IU/L
- CRE (2 mg/kg, 9 h, dose level Low): 0.5 mg/dL
- Cl (2 mg/kg, 9 h, dose level Low): 105.2 meq/L
- DBIL (2 mg/kg, 9 h, dose level Low): 0.072 mg/dL
- GLC (2 mg/kg, 9 h, dose level Low): 189.2 mg/dL
- IP (2 mg/kg, 9 h, dose level Low): 9.4 mg/dL
- K (2 mg/kg, 9 h, dose level Low): 4.8 meq/L
- LDH (2 mg/kg, 9 h, dose level Low): 115 IU/L
- Na (2 mg/kg, 9 h, dose level Low): 137.4 meq/L
- PL (2 mg/kg, 9 h, dose level Low): 130 mg/dL
- RALB (2 mg/kg, 9 h, dose level Low): 3.7 g/dL
- TBIL (2 mg/kg, 9 h, dose level Low): 0.4 mg/dL
- TC (2 mg/kg, 9 h, dose level Low): 80.4 mg/dL
- TG (2 mg/kg, 9 h, dose level Low): 36.2 mg/dL
- TP (2 mg/kg, 9 h, dose level Low): 5.4 g/dL
- gamma-GTP (2 mg/kg, 9 h, dose level Low): 1.4 IU/L
- TERMINAL_BW (2 mg/kg, 24 h, dose level Low): 231.9 g
- APTT (2 mg/kg, 24 h, dose level Low): 17.8 s
- Bas (2 mg/kg, 24 h, dose level Low): 0%
- Eos (2 mg/kg, 24 h, dose level Low): 1%
- Fbg (2 mg/kg, 24 h, dose level Low): 213 mg/dL
- Hb (2 mg/kg, 24 h, dose level Low): 12.8 g/dL
- Ht (2 mg/kg, 24 h, dose level Low): 38.5%
- Lym (2 mg/kg, 24 h, dose level Low): 79.6%
- MCH (2 mg/kg, 24 h, dose level Low): 22.1 pg
- MCHC (2 mg/kg, 24 h, dose level Low): 33.3%
- MCV (2 mg/kg, 24 h, dose level Low): 66.4 fL
- Mono (2 mg/kg, 24 h, dose level Low): 7.6%
- Neu (2 mg/kg, 24 h, dose level Low): 11.8%
- PT (2 mg/kg, 24 h, dose level Low): 11.3 s
- Plat (2 mg/kg, 24 h, dose level Low): 108 x10_4/uL
- RBC (2 mg/kg, 24 h, dose level Low): 580.6 x10_4/ul
- Ret (2 mg/kg, 24 h, dose level Low): 9.1%
- WBC (2 mg/kg, 24 h, dose level Low): 127.4 x10_2/uL
- KIDNEY_L (2 mg/kg, 24 h, dose level Low): 1.1 g
- KIDNEY_R (2 mg/kg, 24 h, dose level Low): 1.1 g
- KIDNEY_TOTAL (2 mg/kg, 24 h, dose level Low): 2.1 g
- ALP (2 mg/kg, 24 h, dose level Low): 972.6 IU/L
- ALT (2 mg/kg, 24 h, dose level Low): 37.2 IU/L
- AST (2 mg/kg, 24 h, dose level Low): 69 IU/L
- CRE (2 mg/kg, 24 h, dose level Low): 0.6 mg/dL
- Cl (2 mg/kg, 24 h, dose level Low): 103.4 meq/L
- DBIL (2 mg/kg, 24 h, dose level Low): 0.05 mg/dL
- GLC (2 mg/kg, 24 h, dose level Low): 201.2 mg/dL
- IP (2 mg/kg, 24 h, dose level Low): 6.6 mg/dL
- K (2 mg/kg, 24 h, dose level Low): 4.4 meq/L
- LDH (2 mg/kg, 24 h, dose level Low): 113 IU/L
- Na (2 mg/kg, 24 h, dose level Low): 139 meq/L
- PL (2 mg/kg, 24 h, dose level Low): 156.6 mg/dL
- RALB (2 mg/kg, 24 h, dose level Low): 3.8 g/dL
- TBIL (2 mg/kg, 24 h, dose level Low): 0.4 mg/dL
- TC (2 mg/kg, 24 h, dose level Low): 83.6 mg/dL
- TG (2 mg/kg, 24 h, dose level Low): 125.8 mg/dL
- TP (2 mg/kg, 24 h, dose level Low): 5.7 g/dL
- gamma-GTP (2 mg/kg, 24 h, dose level Low): 1 IU/L
- TERMINAL_BW (5 mg/kg, 3 h, dose level Middle): 224.6 g
